Measurements from ChEMBL document CHEMBL1201862, “PubChem BioAssay data set” (2004).
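48-hour exposure; five concentrations; linearly interpolated endpoints. Here, GI50 denotes the concentration required for 50% inhibition of growth.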 Active and inactive are the calls of the source. Cut-off read from the data, not from the text of the source: active = GI50 up to about 1.1 µM and inactive = higher.

What was measured:
Assay in all cases: DTP human tumour cell line panel, 48 h
[1] = tested on: 786-0
[2] = tested on: A498
[3] = tested on: A549
[4] = tested on: ACHN
[5] = tested on: BT-549
[6] = tested on: CAKI-1
[7] = tested on: CCRF-CEM
[8] = tested on: COLO 205
[9] = tested on: DU-145
[10] = tested on: EKVX
[11] = tested on: HCC 2998
[12] = tested on: HCT-116
[13] = tested on: HCT-15
[14] = tested on: HL-60
[15] = tested on: HOP-62
[16] = tested on: HOP-92
[17] = tested on: HT-29
[18] = tested on: Hs-578T
[19] = tested on: IGROV-1
[20] = tested on: K562
[21] = tested on: KM12
[22] = tested on: LOX IMVI
[23] = tested on: M14
[24] = tested on: MCF7
[25] = tested on: MDA-MB-231
[26] = tested on: MDA-MB-435
[27] = tested on: MDA-N
[28] = tested on: MOLT-4
[29] = tested on: Malme-3M
[30] = tested on: NCI-H226
[31] = tested on: NCI-H23
[32] = tested on: NCI-H460
[33] = tested on: NCI-H522
[34] = tested on: NCI/ADR-RES
[35] = tested on: OVCAR-3
[36] = tested on: OVCAR-4
[37] = tested on: OVCAR-5
[38] = tested on: OVCAR-8
[39] = tested on: PC-3
[40] = tested on: RXF 393
[41] = tested on: SF-268
[42] = tested on: SF-295
[43] = tested on: SF-539
[44] = tested on: SK-MEL-28
[45] = tested on: SK-MEL-2
[46] = tested on: SK-MEL-5
[47] = tested on: SK-OV-3
[48] = tested on: SN12C
[49] = tested on: SNB-19
[50] = tested on: SNB-75
[51] = tested on: SR
[52] = tested on: SW-620
[53] = tested on: T47D
[54] = tested on: TK-10
[55] = tested on: U-251
[56] = tested on: UACC-257
[57] = tested on: UACC-62
[58] = tested on: UO-31
[59] = tested on: RPMI-8226

In the case of `COc1ccc2c(c1)Cc1cc(/N=[N+](\[O-])c3ccc4c(c3)Cc3cc(OC)ccc3-4)ccc1-2`, the GI50 [1] is reported as 33.2 µM (inactive), the GI50 [2] is reported as 35.6 µM (inactive) and the GI50 [3] is reported as 43.1 µM (inactive). For the same compound, the GI50 [4] was 37.2 µM (inactive), the GI50 [5] was 76.7 µM (inactive) and the GI50 [6] was 36.2 µM (inactive). For the same compound, the GI50 [7] was 12 µM (inactive), the GI50 [8] was 15.3 µM (inactive) and the GI50 [9] was > 100 µM (inactive). For the same compound, the GI50 [10] was 11.3 µM (inactive), the GI50 [11] was 14.2 µM (inactive) and the GI50 [12] was 60.7 µM (inactive). The GI50 [13] was 95.7 µM, the GI50 [14] was 7.48 µM (inactive) and the GI50 [15] was 43.9 µM (inactive). For the same compound, the GI50 [16] was 44.1 µM (inactive), the GI50 [17] was 15.6 µM (inactive) and the GI50 [18] was 54 µM (inactive). The GI50 [19] was 24 µM (inactive), the GI50 [20] was 38.8 µM (inactive) and the GI50 [21] was 29.4 µM (inactive). For the same compound, the GI50 [22] was 33.1 µM (inactive), the GI50 [23] was 49.4 µM (inactive) and the GI50 [24] was 19.7 µM (inactive). For the same compound, the GI50 [25] was 43 µM (inactive), the GI50 [26] was 27.1 µM (inactive) and the GI50 [27] was 29.7 µM (inactive). For the same compound, the GI50 [28] was 36.6 µM (inactive), the GI50 [29] was 38.9 µM (inactive) and the GI50 [30] was 70.3 µM (inactive). For the same compound, the GI50 [31] was 65.6 µM (inactive), the GI50 [32] was 39.3 µM (inactive) and the GI50 [33] was 4.78 µM (inactive). The GI50 [34] was 89.1 µM (inactive), the GI50 [35] was 48.8 µM (inactive) and the GI50 [36] was 40 µM (inactive). For the same compound, the GI50 [37] was > 100 µM (inactive), the GI50 [38] was 38.6 µM (inactive) and the GI50 [39] was 35.9 µM (inactive). The GI50 [40] was 57.7 µM (inactive), the GI50 [41] was 82.8 µM (inactive) and the GI50 [42] was 67.3 µM (inactive). For the same compound, the GI50 [43] was 10.2 µM (inactive), the GI50 [44] was 75.2 µM (inactive) and the GI50 [45] was 60 µM (inactive). For the same compound, the GI50 [46] was 18.1 µM (inactive), the GI50 [47] was > 100 µM (inactive) and the GI50 [48] was > 100 µM (inactive). The GI50 [49] was 51.8 µM (inactive), the GI50 [50] was 39.2 µM (inactive) and the GI50 [51] was 16.4 µM (inactive). The GI50 [52] was > 100 µM (inactive), the GI50 [53] was 38.5 µM (inactive) and the GI50 [54] was 64.3 µM (inactive). The GI50 [55] was 16.9 µM (inactive), the GI50 [56] was 12.9 µM (inactive) and the GI50 [57] was 24.5 µM (inactive). The GI50 [58] was 24.9 µM (inactive).
`Cc1nc(C)c(N2CCN([N+](=O)[O-])CC2)c(O)n1` was tested, and the GI50 [1] was > 100 µM (inactive), the GI50 [2] was > 100 µM (inactive) and the GI50 [3] was > 100 µM (inactive). The GI50 [4] was > 100 µM (inactive), the GI50 [5] was > 100 µM (inactive) and the GI50 [6] was > 100 µM (inactive). The GI50 [7] was > 100 µM (inactive), the GI50 [8] was > 100 µM (inactive) and the GI50 [9] was > 100 µM (inactive). For the same compound, the GI50 [10] was > 100 µM (inactive), the GI50 [11] was > 100 µM (inactive) and the GI50 [12] was > 100 µM (inactive). For the same compound, the GI50 [13] was > 100 µM, the GI50 [14] was > 100 µM (inactive) and the GI50 [15] was > 100 µM (inactive). For the same compound, the GI50 [16] was > 100 µM (inactive), the GI50 [17] was > 100 µM (inactive) and the GI50 [18] was > 100 µM (inactive). For the same compound, the GI50 [19] was > 100 µM (inactive), the GI50 [20] was > 100 µM (inactive) and the GI50 [21] was > 100 µM (inactive). The GI50 [22] was > 100 µM (inactive), the GI50 [23] was > 100 µM (inactive) and the GI50 [24] was > 100 µM (inactive). For the same compound, the GI50 [25] was > 100 µM (inactive), the GI50 [26] was > 100 µM (inactive) and the GI50 [27] was > 100 µM (inactive). For the same compound, the GI50 [28] was > 100 µM (inactive), the GI50 [29] was > 100 µM (inactive) and the GI50 [30] was > 100 µM (inactive). For the same compound, the GI50 [31] was > 100 µM (inactive), the GI50 [32] was > 100 µM (inactive) and the GI50 [33] was > 100 µM (inactive). For the same compound, the GI50 [34] was > 100 µM (inactive), the GI50 [35] was > 100 µM (inactive) and the GI50 [36] was > 100 µM (inactive). For the same compound, the GI50 [38] was > 100 µM (inactive), the GI50 [39] was > 100 µM (inactive) and the GI50 [59] was > 100 µM (inactive). The GI50 [40] was > 100 µM (inactive), the GI50 [41] was > 100 µM (inactive) and the GI50 [42] was > 100 µM (inactive). For the same compound, the GI50 [43] was > 100 µM (inactive), the GI50 [44] was > 100 µM (inactive) and the GI50 [46] was > 100 µM (inactive). For the same compound, the GI50 [47] was > 100 µM (inactive), the GI50 [48] was > 100 µM (inactive) and the GI50 [49] was > 100 µM (inactive). The GI50 [50] was < 0.01 µM (active), the GI50 [51] was > 100 µM (inactive) and the GI50 [52] was > 100 µM (inactive). For the same compound, the GI50 [53] was > 100 µM (inactive), the GI50 [54] was > 100 µM (inactive) and the GI50 [55] was > 100 µM (inactive). The GI50 [56] was > 100 µM (inactive), the GI50 [57] was > 100 µM (inactive) and the GI50 [58] was > 100 µM (inactive).
